From US20250280696A1, “FORMULATIONS AND USES THEREOF IN OPTOELECTRONIC FIELD” (Zhejiang Brilliant Optoelectronic Technology Co.,Ltd., priority 2022, published 2025)

How the values were obtained:
Assay type in all cases: physicochemical
[1] = Absorption spectrum, emission spectrum and extinction coefficient in toluene solution; conditions: for Molar extinction coefficient of the toluene solution: at maximum absorption peak
Protocol: The extinction coefficients of the compounds and their absorption and emission spectrums in the solution were determined as follows: • 1. The compound with a certain amount of substance concentration in the toluene was prepared in a volumetric flask. • 2. The absorption spectrum of the solution was measured by using an ultraviolet-visible spectrophotometer (Puxi T9s) to obtain the absorption peak wavelength. • 3. The absorbance of the maximum absorption peak divided by the amount of substance concentration is the molar extinction coefficient of the compound. • 4. The emission spectrum of the solution was measured by using a fluorescent spectroscope (Hitachi, F-4700 FL Spectrophotometer) to obtain the emission peak wavelength.
(§1) The extinction coefficients of the compounds and their absorption and emission peaks in the solution and film are shown in Table 3.

[2] = Solubility of compounds in toluene; conditions: per 100 g toluene
Protocol: The solubility of the compounds in the toluene were determined as follows: • 1. 1000 mg toluene was placed in the transparent glass sample bottle. • 2. A certain mass of the compound was added into the toluene, and oscillated until completely dissolved. • 3. After the compound was completely dissolved, a certain mass of the compound was further added into the toluene, and oscillated. • 4. The above steps were repeated until the compound wasn't dissolved any more. • 5. The total mass of the compound added was recorded and the solubility was obtained by calculation.

[3] = Absorption and emission spectrum in spin-coated film; conditions: for Red shift of the spectrum in the film relative to the solution: film vs toluene solution; for Absorption peak of the film / Emission peak of the film: spin-coated film on glass
Protocol: The Absorption and emission spectrums of the compounds in the film were determined as follows: • 1. The compound with a certain concentration in the toluene was prepared. • 2. The prepared toluene solution was dropped onto a clean glass substrate. • 3. Spin-coating, and then heating at the 80° C. for 1 min. • 4. The absorption spectrum of the film was measured by using an ultraviolet-visible spectrophotometer (Puxi T9s) to obtain the absorption peak wavelength. • 5. The emission spectrum of the film was measured by using a fluorescent spectroscope (Hitachi, F-4700 FL Spectrophotometer) to obtain the emission peak wavelength.
as §1

[4] = UV stability of compounds in toluene (absorbance decay, t80); conditions: for Times t80: UV LEDs 365 nm & 255 nm, 12 cm, time until absorbance decayed to 80% of initial value; for UV stability compared with the unfluorinated compound 20: UV irradiation
Protocol: The UV stability of the compounds were tested as follows:
The compound was dissolved in the toluene with a concentration of 1×10^5 mol/L. 3 mL solution was added to the cuvette with a lid and the lid was screwed on tightly, then the cuvette was placed in the ultraviolet-visible spectrophotometer to test the absorption spectrum, the absorbance of the maximum absorption peak was recorded as the initial value. The cuvette was placed at a distance of 12 cm from the UV LEDs (365 nm & 255 nm), irradiated for a period and tested its absorption spectrum, then continued to be irradiated after the test, and repeated until the absorbance decayed to 80% of its initial value, the time was recorded as t80.

SMILES | Molar extinction coefficient of the toluene solution [1] | Solubilities(/100 g toluene) [2] | Red shift of the spectrum in the film relative to the solution [3] | Times t80 [4] | Absorption peak of the toluene solution [1] | Emission peak of the toluene solution [1] | Absorption peak of the film [3] | Emission peak of the film [3] | UV stability compared with the unfluorinated compound 20 [4]
Cc1cccc(C)c1N(c1ccc(C(C)(C)C)cc1)c1cc(N(c2ccc(C(C)(C)C)cc2)c2c(C)cccc2C)c2ccc3c(N(c4ccc(C(C)(C)C)cc4)c4c(C)cccc4C)cc(N(c4ccc(C(C)(C)C)cc4)c4c(C)cccc4C)c4ccc1c2c43 [Compound 4] | 30000 L/mol | 4.2 g | very small red shift | 195 min | – | – | – | – | –
Cc1cccc(C)c1N(c1cc(C(C)(C)C)cc(C(C)(C)C)c1)c1cc(N(c2cc(C(C)(C)C)cc(C(C)(C)C)c2)c2c(C)cccc2C)c2ccc3c(N(c4cc(C(C)(C)C)cc(C(C)(C)C)c4)c4c(C)cccc4C)cc(N(c4cc(C(C)(C)C)cc(C(C)(C)C)c4)c4c(C)cccc4C)c4ccc1c2c43 [Compound 7] | 56000 L/mol | 4.6 g | very small red shift | 280 min | – | – | – | – | –
CC(C)c1cccc(C(C)C)c1N(c1ccc(C(C)(C)C)cc1)c1cc(N(c2ccc(C(C)(C)C)cc2)c2c(C(C)C)cccc2C(C)C)c2ccc3c(N(c4ccc(C(C)(C)C)cc4)c4c(C(C)C)cccc4C(C)C)cc(N(c4ccc(C(C)(C)C)cc4)c4c(C(C)C)cccc4C(C)C)c4ccc1c2c43 [Compound 8] | – | >20 g | – | – | – | – | – | – | –
CC(C)c1cccc(C(C)C)c1N(c1cc(C(C)(C)C)cc(C(C)(C)C)c1)c1cc(N(c2cc(C(C)(C)C)cc(C(C)(C)C)c2)c2c(C(C)C)cccc2C(C)C)c2ccc3c(N(c4cc(C(C)(C)C)cc(C(C)(C)C)c4)c4c(C(C)C)cccc4C(C)C)cc(N(c4cc(C(C)(C)C)cc(C(C)(C)C)c4)c4c(C(C)C)cccc4C(C)C)c4ccc1c2c43 [Compound 9] | – | >20 g | – | – | – | – | – | – | –
CCc1cccc(CC)c1N(c1ccc(C(C)(C)C)cc1)c1cc(N(c2ccc(C(C)(C)C)cc2)c2c(CC)cccc2CC)c2ccc3c(N(c4ccc(C(C)(C)C)cc4)c4c(CC)cccc4CC)cc(N(c4ccc(C(C)(C)C)cc4)c4c(CC)cccc4CC)c4ccc1c2c43 [Compound 11] | 53000 L/mol | 25.9 g | very small red shift | 257 min | – | – | – | – | –
Cc1ccccc1N(c1ccc(C(C)(C)C)cc1C)c1cc(N(c2ccccc2C)c2ccc(C(C)(C)C)cc2C)c2ccc3c(N(c4ccccc4C)c4ccc(C(C)(C)C)cc4C)cc(N(c4ccccc4C)c4ccc(C(C)(C)C)cc4C)c4ccc1c2c43 [Compound 12] | – | >3 g | – | – | – | – | – | – | –
Cc1cc2ccccc2cc1N(c1ccc(C(C)(C)C)cc1)c1cc(N(c2ccc(C(C)(C)C)cc2)c2cc3ccccc3cc2C)c2ccc3c(N(c4ccc(C(C)(C)C)cc4)c4cc5ccccc5cc4C)cc(N(c4ccc(C(C)(C)C)cc4)c4cc5ccccc5cc4C)c4ccc1c2c43 [Compound 13] | – | >2.5 g | – | – | – | – | – | – | –
Cc1cc2ccccc2c(C)c1N(c1ccc(C(C)(C)C)cc1)c1cc(N(c2ccc(C(C)(C)C)cc2)c2c(C)cc3ccccc3c2C)c2ccc3c(N(c4ccc(C(C)(C)C)cc4)c4c(C)cc5ccccc5c4C)cc(N(c4ccc(C(C)(C)C)cc4)c4c(C)cc5ccccc5c4C)c4ccc1c2c43 [Compound 14] | – | >2 g | – | – | – | – | – | – | –
Cc1cccc(C)c1N(c1ccc(C(F)(F)F)cc1)c1cc(N(c2ccc(C(F)(F)F)cc2)c2c(C)cccc2C)c2ccc3c(N(c4ccc(C(F)(F)F)cc4)c4c(C)cccc4C)cc(N(c4ccc(C(F)(F)F)cc4)c4c(C)cccc4C)c4ccc1c2c43 [Compound 15] | – | >4 g | – | – | – | – | – | – | –
Fc1ccc(N(c2ccccc2)c2cc(N(c3ccccc3)c3ccc(F)cc3)c3ccc4c(N(c5ccccc5)c5ccc(F)cc5)cc(N(c5ccccc5)c5ccc(F)cc5)c5ccc2c3c54)cc1 [Compound 16] | 37000 L/mol | >1.5 g | large red shift | 227 min | 466 nm | 493 nm | 469 nm | 551 nm | greatly improved
Fc1cccc(F)c1N(c1ccccc1)c1cc(N(c2ccccc2)c2c(F)cccc2F)c2ccc3c(N(c4ccccc4)c4c(F)cccc4F)cc(N(c4ccccc4)c4c(F)cccc4F)c4ccc1c2c43 [Compound 17] | 18000 L/mol | >1 g | large red shift | – | 439 nm | 462 nm | 445 nm | 496 nm | greatly improved
Cc1cccc(C)c1N(c1nc(-c2ccccc2)nc(-c2ccccc2)n1)c1cc(C(C)C)c2ccc3c(N(c4nc(-c5ccccc5)nc(-c5ccccc5)n4)c4c(C)cccc4C)cc(C(C)C)c4ccc1c2c43 [Compound 18] | – | >1 g | – | – | – | – | – | – | –
Cc1cccc(C)c1N(c1ncc2ccccc2n1)c1cc(C(C)C)c2ccc3c(N(c4ncc5ccccc5n4)c4c(C)cccc4C)cc(C(C)C)c4ccc1c2c43 [Compound 19] | – | >1 g | – | – | – | – | – | – | –
c1ccc(N(c2ccccc2)c2cc(N(c3ccccc3)c3ccccc3)c3ccc4c(N(c5ccccc5)c5ccccc5)cc(N(c5ccccc5)c5ccccc5)c5ccc2c3c54)cc1 [Compound 20] | 23000 L/mol | >1.5 g | large red shift | 188 min | 465 nm | 488 nm | 482 nm | 561 nm | –
CC(C)(C)c1ccc(N(c2ccccc2)c2cc(N(c3ccccc3)c3ccc(C(C)(C)C)cc3)c3ccc4c(N(c5ccccc5)c5ccc(C(C)(C)C)cc5)cc(N(c5ccccc5)c5ccc(C(C)(C)C)cc5)c5ccc2c3c54)cc1 [Compound 21] | 40000 L/mol | >3 g | large red shift | – | 469 nm | 495 nm | 472 nm | 546 nm | –
CCCCCCCCc1ccc(-c2cc(C(C)C)ccc2N(c2cc(F)c(F)c(F)c2)c2cc(N(c3cc(F)c(F)c(F)c3)c3ccc(C(C)C)cc3-c3ccc(CCCCCCCC)cc3)c3ccc4c(N(c5cc(F)c(F)c(F)c5)c5ccc(C(C)C)cc5-c5ccc(CCCCCCCC)cc5)cc(N(c5cc(F)c(F)c(F)c5)c5ccc(C(C)C)cc5-c5ccc(CCCCCCCC)cc5)c5ccc2c3c54)cc1 [Compound 22] | 59000 L/mol | >15 g | very small red shift | 377 min | – | – | – | 490 nm | –
CCCCCCCCc1ccc(-c2cc(N(c3ccc(C(C)(C)C)cc3)c3ccc(C(C)(C)C)cc3)ccc2N(c2cc(F)c(F)c(F)c2)c2cc(N(c3cc(F)c(F)c(F)c3)c3ccc(N(c4ccc(C(C)(C)C)cc4)c4ccc(C(C)(C)C)cc4)cc3-c3ccc(CCCCCCCC)cc3)c3ccc4c(N(c5cc(F)c(F)c(F)c5)c5ccc(N(c6ccc(C(C)(C)C)cc6)c6ccc(C(C)(C)C)cc6)cc5-c5ccc(CCCCCCCC)cc5)cc(N(c5cc(F)c(F)c(F)c5)c5ccc(N(c6ccc(C(C)(C)C)cc6)c6ccc(C(C)(C)C)cc6)cc5-c5ccc(CCCCCCCC)cc5)c5ccc2c3c54)cc1 [Compound 25] | 51000 L/mol | >10 g | very small red shift | – | – | – | – | – | –
CC(C)(C)c1ccc2c(c1)c1cc(C(C)(C)C)cc3c1n2-c1cccc2c1B3c1cc3c4ccccc4c4ccccc4c3c3c4c5c6ccccc6c6ccccc6c5ccc4n-2c13 [Compound E2, reference compound] | 48000 L/mol | >0.7 g | – | – | – | – | – | – | –
CC(C)(C)c1ccc2c(c1)B1c3c(c4c5c(c3-n3c6ccc(C(C)(C)C)cc6c6cc(C(C)(C)C)cc1c63)Oc1ccc(C(C)(C)C)cc1B5c1cc(C(C)(C)C)cc3c5cc(C(C)(C)C)ccc5n-4c13)O2 [Compound E4, reference compound] | 27000 L/mol | >0.7 g | – | – | 589 nm | 613 nm | – | – | –
